Experimental data taken from US11702409B2, “Pyrazolyl derivatives useful as anti-cancer agents” (NOVARTIS AG, priority 2019, dated 2023).

Biological target: KRasG12C (M1-K169, biotinylated on the N-terminus) (Homo sapiens (Human), UniProt P01116, G12C)
Assay: Covalent competition assay (scintillation proximity assay, competition with radiolabeled covalent probe Compound B)
Assay type: binding
Conditions: in vitro KRASG12C activity; 10 nM KRasG12C:GDP, 25 nM radio-ligand and 475 nM unlabelled ligand, incubated 2 hours; read-out: Covalent Competition Assay IC50
How it was run: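 Biotinylated KRasG12C (M1-K169):GDP incubated 2 h with agitation with serially diluted compounds premixed with a fixed concentration of radiolabeled covalent probe; scintillation proximity read-out of competition for covalent modification. Buffer 20 mM Tris-HCl pH 7.5, 150 mM NaCl, 0.1 mM MgCl2, 0.01% Tween-20. IC50 from 4-parameter fit.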

SMILES	IC50 [nM]
C=CC(=O)N1CC2(CC(n3nc(-c4ccc5[nH]ncc5c4)c(-c4c(Cl)c(C)cc5[nH]ncc45)c3C)C2)C1 (single isomer, unassigned) [Example 12b]	6100
C=CC(=O)N1CC2(CC(n3nc(-c4ccc5ncnn5c4)c(-c4c(Cl)c(C)cc5[nH]ncc45)c3C)C2)C1 (single isomer, unassigned) [Example 23b]	13900
C=CC(=O)N1CC2(CC(n3nc(-c4cccc5c4cnn5C)c(-c4c(Cl)c(C)cc5[nH]ncc45)c3C)C2)C1 (single isomer, unassigned) [Example 29a]	220
C=CC(=O)N1CC2(CC(n3nc(-c4ccc5[nH]ncc5c4)c(-c4c(Cl)c(C)cc5[nH]ncc45)c3C)C2)C1 (single isomer, unassigned) [Example 12a]	24
C=CC(=O)N1CC2(CC(n3nc(-c4ccc5c(cnn5CCN5CCOCC5)c4)c(-c4c(Cl)c(C)cc5[nH]ncc45)c3C)C2)C1 (single isomer, unassigned) [Example 17a]	13
C=CC(=O)N1CC2(CC(n3nc(-c4ccc5c(c4)N(C)CC(=O)O5)c(-c4c(Cl)c(C)cc5[nH]ncc45)c3C)C2)C1 (single isomer, unassigned) [Example 32a]	871
C=CC(=O)N1CC2(CC(n3nc(-c4ccc5c(c4)CC(=O)N5C)c(-c4c(Cl)c(C)cc5[nH]ncc45)c3C)C2)C1 (single isomer, unassigned) [Example 24a]	71
C=CC(=O)N1CC2(CC(n3nc(-c4cncc(C#N)c4)c(-c4c(Cl)c(C)cc5[nH]ncc45)c3C)C2)C1 (single isomer, unassigned) [Example 10a]	1200
C=CC(=O)N1CC2(CC(n3nc(-c4ccc5nn(CCOC)cc5c4)c(-c4c(Cl)c(C)cc5[nH]ncc45)c3C)C2)C1 (single isomer, unassigned) [Example 41b]	941
C=CC(=O)N1CC2(CC(n3nc(-c4ccc5c(c4)N(C)CCO5)c(-c4c(Cl)c(C)cc5[nH]ncc45)c3C)C2)C1 (single isomer, unassigned) [Example 31a]	13900
C=CC(=O)N1CC2(CC(n3nc(-c4ccc5c(c4)N(C)CC(=O)O5)c(-c4c(Cl)c(C)cc5[nH]ncc45)c3C)C2)C1 (single isomer, unassigned) [Example 32b]	> 50000
C=CC(=O)N1CC2(CC(n3nc(-c4ccc(N5CCN(C)C5=O)cc4)c(-c4c(Cl)c(C)cc5[nH]ncc45)c3C)C2)C1 (single isomer, unassigned) [Example 13a]	18
C=CC(=O)N1CC2(CC(n3nc(-c4cscn4)c(-c4c(Cl)c(C)cc5[nH]ncc45)c3C)C2)C1 (single isomer, unassigned) [Example 51b, 1-(6-(4-(5-chloro-6-methyl-1H-indazol-4-yl)-5-methyl-3-(thiazol-4-yl)-1H-pyrazol-1-yl)-2-azaspiro[3.3]heptan-2-yl)prop-2-en-1-one]	36100
C=CC(=O)N1CC2(CC(n3nc(-c4ccc5nn(CCN(C)C)cc5c4)c(-c4c(Cl)c(C)cc5[nH]ncc45)c3C)C2)C1 (single isomer, unassigned) [Example 16b]	23400
C=CC(=O)N1CC2(CC(n3nc(-c4cnn(S(=O)(=O)C5CC5)c4)c(-c4c(Cl)c(C)cc5[nH]ncc45)c3C)C2)C1 (single isomer, unassigned) [Example 36b]	> 50000
C=CC(=O)N1CC2(CC(n3nc(-c4ccc5cnccc5c4)c(-c4c(Cl)c(C)cc5[nH]ncc45)c3C)C2)C1 (single isomer, unassigned) [Example 25b]	7800
C=CC(=O)N1CC2(CC(n3nc(-c4ccc5nc(NC)ncc5c4)c(-c4c(Cl)c(C)cc5[nH]ncc45)c3C)C2)C1 (single isomer, unassigned) [Example 40a]	99
C=CC(=O)N1CC2(CC(n3nc(C4=CCC(F)(F)CC4)c(-c4c(Cl)c(C)cc5[nH]ncc45)c3C)C2)C1 (single isomer, unassigned) [Example 3a]	465
C=CC(=O)N1CC2(CC(n3nc(-c4ccc5c(c4)C(=O)OC5)c(-c4c(Cl)c(C)cc5[nH]ncc45)c3C)C2)C1 (single isomer, unassigned) [Example 54a]	360
C=CC(=O)N1CC2(CC(n3nc(-c4ccc5nn(CC(C)(C)O)cc5c4)c(-c4c(Cl)c(C)cc5[nH]ncc45)c3C)C2)C1 (single isomer, unassigned) [Example 42a, 1-(6-{(4M)-4-(5-Chloro-6-methyl-1H-indazol-4-yl)-3-[2-(2-hydroxy-2-methylpropyl)-2H-indazol-5-yl]-5-methyl-1H-pyrazol-1-yl}-2-azaspiro[3.3]heptan-2-yl)prop-2-en-1-one]	12
C=CC(=O)N1CC2(CC(n3nc(-c4ccc5c(c4)CN(C)C(=O)C5)c(-c4c(Cl)c(C)cc5[nH]ncc45)c3C)C2)C1 (single isomer, unassigned) [Example 21a]	60
C=CC(=O)N1CC2(CC(n3nc(-c4ccc(CO)cc4)c(-c4c(Cl)c(C)cc5[nH]ncc45)c3C)C2)C1 (single isomer, unassigned) [Example 47a, 1-(6-{(4M)-4-(5-Chloro-6-methyl-1H-indazol-4-yl)-3-[4-(hydroxymethyl)phenyl]-5-methyl-1H-pyrazol-1-yl}-2-azaspiro[3.3]heptan-2-yl)prop-2-en-1-one]	43

Second part, the compound after the results:

IC50 [nM]	SMILES
5310	C=CC(=O)N1CC2(CC(n3nc(C4=CN5CC(C)(C)N=C5C(F)=C4)c(-c4c(Cl)c(C)cc5[nH]ncc45)c3C)C2)C1 (single isomer, unassigned) [Example 73a]
17400	C=CC(=O)N1CC2(CC(n3nc(-c4ccc(C(=O)NCCN(C)C)cc4)c(-c4c(Cl)c(C)cc5[nH]ncc45)c3C)C2)C1 (single isomer, unassigned) [Example 65b]
> 5000	C=CC(=O)N1CC2(CC(n3nc(-c4ccc(O)cc4F)c(-c4c(Cl)c(C)cc5[nH]ncc45)c3C)C2)C1 (single isomer, unassigned) [Example 58b]
59	C=CC(=O)N1CC2(CC(n3nc(-c4ccc(C(=O)O)cc4)c(-c4c(Cl)c(C)cc5[nH]ncc45)c3C)C2)C1 (single isomer, unassigned) [Example 68a]
1300	C=CC(=O)N1CC2(CC(n3nc(-c4ccc5nn(CCN6CC[C@H](F)C6)cc5c4)c(-c4c(Cl)c(C)cc5[nH]ncc45)c3C)C2)C1 (single isomer, unassigned) [Example 80a]
24000	C=CC(=O)N1CC2(CC(n3nc(-c4ccc5c(c4)CS(=O)(=O)C5)c(-c4c(Cl)c(C)cc5[nH]ncc45)c3C)C2)C1 (single isomer, unassigned) [Example 72b]
1900	C=CC(=O)N1CC2(CC(n3nc(-c4ccc(C(=O)O)cc4)c(-c4c(Cl)c(C)cc5[nH]ncc45)c3C)C2)C1 (single isomer, unassigned) [Example 68b]
51	C=CC(=O)N1CC2(CC(n3nc(-c4ccc(OCCOC)cc4F)c(-c4c(Cl)c(C)cc5[nH]ncc45)c3C)C2)C1 (single isomer, unassigned) [Example 60a, 1-(6-{(4M)-4-(5-Chloro-6-methyl-1H-indazol-4-yl)-3-[2-fluoro-4-(2-methoxyethoxy)phenyl]-5-methyl-1H-pryazol-1-yl}-2-azaspiro[3.3]heptan-2-yl)prop2-en-1-one]
> 5000	C=CC(=O)N1CC2(CC(n3nc(-c4ccc5nnccc5c4)c(-c4c(Cl)c(C)cc5[nH]ncc45)c3C)C2)C1 (single isomer, unassigned) [Example 71b, 1-(6-(4-(5-chloro-6-methyl-1H-indazol-4-yl)-3-(cinnolin-6-yl)-5-methyl-1H-pyrazol-1-yl)-2-azaspiro[3.3]heptan-2-yl)prop-2-en-1-one]
> 50000	C=CC(=O)N1CC2(CC(n3nc(-c4cccnc4C)c(-c4c(Cl)c(C)cc5[nH]ncc45)c3C(F)F)C2)C1 (single isomer, unassigned) [Example 84b, 1-(6-(4-(5-Chloro-6-methyl-1H-indazol-4-yl)-5-(difluoromethyl)-3-(2-methylpyridin-3-yl)-1H-pyrazol-1-yl)-2-azaspiro[3.3]heptan-2-yl)prop-2-en-1-one]
202	C=CC(=O)N1CC2(CC(n3nc(-c4ccc(C(=O)N(C)CC(C)(C)O)cc4)c(-c4c(Cl)c(C)cc5[nH]ncc45)c3C)C2)C1 (single isomer, unassigned) [Example 67a]
25300	C=CC(=O)N1CC2(CC(n3nc(-c4cccc(=O)n4C)c(-c4c(Cl)ccc5[nH]ncc45)c3C)C2)C1 (single isomer, unassigned) [Example 91b]
> 50000	C=CC(=O)N1CC2(CC(n3nc(-c4cc5ccncc5[nH]4)c(-c4c(Cl)c(C)cc5[nH]ncc45)c3C)C2)C1 (single isomer, unassigned) [Example 59b, 1-(6-(4-(5-chloro-6-methyl-1H-indazol-4-yl)-5-methyl-3-(1H-pyrrolo[2,3-c]pyridin-2-yl)-1H-pyrazol-1-yl)-2-azaspiro[3.3]heptan-2-yl)prop-2-en-1-one]
> 50000	C=CC(=O)N1CC2(CC(n3nc(-c4c(C)cncc4C)c(-c4c(Cl)c(C)cc5[nH]ncc45)c3C)C2)C1 (single isomer, unassigned) [Example 74b]
> 50000	C=CC(=O)N1CC2(CC(n3nc(-c4cncnc4)c(-c4c(Cl)c(Cl)cc5[nH]ncc45)c3C(F)F)C2)C1 (single isomer, unassigned) [Example 86b]
1300	C=CC(=O)N1CC2(CC(n3nc(-c4cncnc4)c(-c4c(Cl)c(Cl)cc5[nH]ncc45)c3C(F)F)C2)C1 (single isomer, unassigned) [Example 86a]
